The compounds below were run against T1, recombinant CETP (rCETP) (Homo sapiens, UniProt P11597) (assay: RTA assay using recombinant CETP (2% RTA)). Conditions: RTA assay in 2% human serum; read-out: IC50.
T1 sequence (P11597 18-493): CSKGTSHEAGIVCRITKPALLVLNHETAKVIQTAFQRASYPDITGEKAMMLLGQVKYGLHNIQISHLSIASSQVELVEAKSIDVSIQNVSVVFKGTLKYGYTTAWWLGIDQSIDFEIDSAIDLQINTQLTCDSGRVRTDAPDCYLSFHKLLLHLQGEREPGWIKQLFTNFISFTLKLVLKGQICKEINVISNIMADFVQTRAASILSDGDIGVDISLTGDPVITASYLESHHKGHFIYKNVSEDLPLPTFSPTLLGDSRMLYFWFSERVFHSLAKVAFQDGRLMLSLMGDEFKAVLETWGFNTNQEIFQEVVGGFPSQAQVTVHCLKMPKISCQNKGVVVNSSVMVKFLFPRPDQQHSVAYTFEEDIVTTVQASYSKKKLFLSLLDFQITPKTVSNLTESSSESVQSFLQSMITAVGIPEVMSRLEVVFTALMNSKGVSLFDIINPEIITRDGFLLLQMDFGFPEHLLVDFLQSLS
Format: biochemical
Outline: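 Compounds preincubated 1 h at 37 °C with assay cocktail (CETP buffer: 50 mM Tris pH 7.4, 100 mM NaCl, 1 mM EDTA; human HDL acceptor); transfer started with [3H]cholesteryl oleate- or [3H]triolein-labelled LDL, 60 min at 37 °C. LDL PEG-precipitated; supernatant counted by scintillation, blank-corrected; IC50 from 4-parameter sigmoidal fit of % inhibition vs DMSO control.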
COc1ccc([C@@H]2C[C@H]2C(=O)O)cc1-c1ccc(N2CC(F)(F)C2)nc1CN1C(=O)O[C@H](c2cc(C(F)(F)F)cc(C(F)(F)F)c2)[C@@H]1C [Example 66] was tested, and the IC50 was 8 nM.
In the case of COc1ccc([C@H]2CC[C@H](C(=O)O)CC2)cc1-c1cnc(N2CCC2)nc1CN1C(=O)O[C@H](c2cc(C(F)(F)F)cc(C(F)(F)F)c2)[C@@H]1C [Example 154], the IC50 is reported as 27 nM.
For COC(=O)[C@@H]1CC[C@@H](c2ccc(OC)c(-c3c(C)cc(N4CCC4)nc3CN3C(=O)O[C@H](c4cc(C(F)(F)F)cc(C(F)(F)F)c4)[C@@H]3C)c2)C1 (mixture of isomers) [Example 216], the IC50 was 9 nM.
COC(=O)[C@H]1CC[C@@H](c2ccc(OC)c(-c3ccc(N4CCC4)nc3CN3C(=O)O[C@H](c4cc(C(F)(F)F)cc(C(F)(F)F)c4)[C@@H]3C)c2)C1 (single isomer, unassigned) [Example 218] gave an IC50 of 12 nM.
In the case of COc1c(F)cc(-c2ncc(C(=O)O)cc2Cl)cc1-c1cnc(N2CC(F)(F)C2)nc1CN1C(=O)O[C@H](c2cc(C(F)(F)F)cc(C(F)(F)F)c2)[C@@H]1C [Example 188], the IC50 is reported as 18 nM.
COc1ccc([C@H]2CC[C@H](C(=O)OC)CC2)cc1-c1ccc(N2CCC2)nc1CN1C(=O)O[C@H](c2cc(C)cc(C)c2)[C@@H]1C [Example 200] was tested, and the IC50 was 55 nM.
C[C@H]1[C@@H](c2cc(C(F)(F)F)cc(C(F)(F)F)c2)OC(=O)N1Cc1nc(N2CCC2)ccc1-c1cc(CCCO)ccc1OC1CC1 [Example 260] showed an IC50 of 12 nM.
COc1ccc(CC(=O)O)cc1-c1ccc(N2CCC2)nc1CN1C(=O)O[C@H](c2cc(C(F)(F)F)cc(C(F)(F)F)c2)[C@@H]1C [Example 80] showed an IC50 of 36 nM.
CCOC(=O)CCc1ccc(OC)c(-c2ccc(N3CCC3)nc2CN2C(=O)O[C@H](c3cccc(C)c3)[C@@H]2C)c1 [Example 199] gave an IC50 of 237 nM.
CCc1ccc(-c2ccc(C(=O)OC)cc2C)cc1-c1cnc(N2CC(F)(F)C2)nc1CN1C(=O)O[C@H](c2cc(C(F)(F)F)cc(C(F)(F)F)c2)[C@@H]1C [Example 133] showed an IC50 of 39 nM.
COc1ccc([C@H]2CC[C@H](C(=O)O)CC2)cc1-c1ccc(N2CCC2)nc1CN1C(=O)O[C@H](c2cccc(C)c2)[C@@H]1C [Example 225] gave an IC50 of 66 nM.
In the case of COc1ccc(CCC(=O)O)cc1-c1ccc(N2CC(F)(F)C2)nc1CN1C(=O)O[C@H](c2cc(C(F)(F)F)cc(C(F)(F)F)c2)[C@@H]1C [Example 64], the IC50 is reported as 13 nM.
Work on COc1ccc(-c2sc(C(=O)O)c(C)c2C)cc1-c1ccc(N2CCC2)nc1CN1C(=O)O[C@H](c2cc(C(F)(F)F)cc(C(F)(F)F)c2)[C@@H]1C [Example 111] yielded an IC50 of 5 nM.
For COC(=O)CCc1ccc(OC)c(-c2ccc(N3CCC3)nc2CN2C(=O)O[C@H](c3cc(F)c(F)c(F)c3)[C@@H]2C)c1 [Example 31], the IC50 was 97 nM.
In the case of COc1cc(F)c(-c2ccc(C(=O)O)cc2C)cc1-c1cnc(N2CC(OC)C2)nc1CN1C(=O)O[C@H](c2cc(C(F)(F)F)cc(C(F)(F)F)c2)[C@@H]1C [Example 165], the IC50 is reported as 11 nM.
In the case of COc1cc2c(cc1-c1ccc(N3CCC3)nc1CN1C(=O)O[C@H](c3cc(C)cc(C)c3)[C@@H]1C)[C@H](CC(=O)O)CC2 [Example 230], the IC50 is reported as 95 nM.
CCOC(=O)c1csc(-c2ccc(OC)c(-c3ccc(N4CCC4)nc3CN3C(=O)O[C@H](c4cc(C(F)(F)F)cc(C(F)(F)F)c4)[C@@H]3C)c2)n1 [Example 54] showed an IC50 of 189 nM.
With CCc1ccc(-c2ccc(C(=O)OC)cc2C)cc1-c1cnc(N2CC(OC)C2)nc1CN1C(=O)O[C@H](c2cc(C(F)(F)F)cc(C(F)(F)F)c2)[C@@H]1C [Example 137] the IC50 was 605 nM.
Compound COc1cc(F)c(CCC(=O)O)cc1-c1ccc(N2CC(F)(F)C2)nc1CN1C(=O)O[C@H](c2cc(C(F)(F)F)cc(C(F)(F)F)c2)[C@@H]1C [Example 65] has an IC50 of 24 nM.
In the case of COc1ccc([C@H]2CC[C@H](C(=O)O)CC2)cc1-c1cnc(N2CC(F)(F)C2)nc1CN1C(=O)O[C@H](c2cc(C(F)(F)F)cc(C(F)(F)F)c2)[C@@H]1C [Example 157], the IC50 is reported as 10 nM.
COC(=O)CCc1ccc(OC2CC2)c(-c2c(C)cc(N3CCC3)nc2CN2C(=O)O[C@H](c3cc(C(F)(F)F)cc(C(F)(F)F)c3)[C@@H]2C)c1 [Example 215] was tested, and the IC50 was 6 nM.
COc1ccc([C@H]2CC[C@H](C(=O)OC)CC2)cc1-c1ccc(N2CCC2)nc1CN1C(=O)O[C@H](c2cccc(C)c2)[C@@H]1C [Example 201] showed an IC50 of 166 nM.
COc1ccc([C@H]2C[C@H](C(=O)OC)C2)cc1-c1ccc(N2CCC2)nc1CN1C(=O)O[C@H](c2cc(C(F)(F)F)cc(C(F)(F)F)c2)[C@@H]1C [Example 24] was tested, and the IC50 was 2 nM.
Compound CCOC(=O)C[C@@H]1CCc2cc(OC)c(-c3cnc(N4CCC4)nc3CN3C(=O)O[C@H](c4cc(C(F)(F)F)cc(C(F)(F)F)c4)[C@@H]3C)cc21 [Example 126] has an IC50 of 134 nM.
For COc1ccc(CCc2nc[nH]n2)cc1-c1ccc(N2CCC2)nc1CN1C(=O)O[C@H](c2cc(C(F)(F)F)cc(C(F)(F)F)c2)[C@@H]1C [Example 270, (4S,5R)-3-[(6-azetidin-1-yl-3-{2-methoxy-5-[2-(1H-1,2,4-triazol-3-yl)ethyl]phenyl}pyridin-2-yl)methyl]-5-[3,5-bis(trifluoromethyl)phenyl]-4-methyl-1,3-oxazolidin-2-one], the IC50 was 7 nM.
COC(=O)CC(C)(C)c1ccc(OC)c(-c2ccc(N3CCC3)nc2CN2C(=O)O[C@H](c3cc(F)c(F)c(F)c3)[C@@H]2C)c1 [Example 32] was tested, and the IC50 was 107 nM.
For COc1cc(F)c(-c2cc(C(F)(F)F)c(C(=O)O)cn2)cc1-c1cnc(N2CC(F)(F)C2)nc1CN1C(=O)O[C@H](c2cc(C(F)(F)F)cc(C(F)(F)F)c2)[C@@H]1C [Example 190], the IC50 was 146 nM.
Compound COC(=O)CC(C)(C)c1ccc(OC)c(-c2ccc(N3CCC3)nc2CN2C(=O)O[C@H](c3cccc(C)c3)[C@@H]2C)c1 [Example 203] has an IC50 of 106 nM.
With COc1cc(F)c(-c2ccc(C(=O)O)cc2C)cc1-c1ccc(N2CCC2)nc1CN1C(=O)O[C@H](c2cc(C#N)cc(C(F)(F)F)c2)[C@@H]1C [Example 247] the IC50 was 44 nM.
COc1cc(F)c([C@H]2C[C@@H](C(=O)OC)C2)cc1-c1ccc(N2CCC2)nc1CN1C(=O)O[C@H](c2cc(C(F)(F)F)cc(C(F)(F)F)c2)[C@@H]1C [Example 37] showed an IC50 of 17 nM.
With COc1ccc(CCC(=O)O)cc1-c1ccc(N2CCC2)nc1CN1C(=O)O[C@H](c2cc(F)cc(F)c2)[C@@H]1C [Example 82] the IC50 was 484 nM.
For COc1ccc([C@H]2CC[C@H](C(N)=O)CC2)cc1-c1ccc(N2CCC2)nc1CN1C(=O)O[C@H](c2cc(C)cc(C)c2)[C@@H]1C [Example 253, trans-4-[3-(6-azetidin-1-yl-2-{[(4S,5R)-5-(3,5-dimethylphenyl)-4-methyl-2-oxo-1,3-oxazolidin-3-yl]methyl}pyridin-3-yl)-4-methoxyphenyl]cyclohexanecarboxamide], the IC50 was 23 nM.
Compound COc1cc2c(cc1-c1ccc(N3CCC3)nc1CN1C(=O)O[C@H](c3cccc(C(F)(F)F)c3)[C@@H]1C)[C@H](CC(=O)O)CC2 [Example 229] has an IC50 of 161 nM.
COC1CN(c2ncc(-c3cc([C@H]4CC[C@H](C(=O)O)CC4)ccc3Cl)c(CN3C(=O)O[C@H](c4cc(C(F)(F)F)cc(C(F)(F)F)c4)[C@@H]3C)n2)C1 [Example 167] was tested, and the IC50 was 771 nM.
CCOC(=O)[C@@H]1C[C@@H]1c1ccc(OC)c(-c2ccc(N3CCC3)nc2CN2C(=O)O[C@H](c3cc(F)cc(F)c3)[C@@H]2C)c1 [Example 18] was tested, and the IC50 was 62 nM.
COc1ccc([C@@H]2CC[C@@H](C(=O)O)C2)cc1-c1ccc(N2CCC2)nc1CN1C(=O)O[C@H](c2cc(C(F)(F)F)cc(C(F)(F)F)c2)[C@@H]1C (single isomer, unassigned) [Example 239] was tested, and the IC50 was 7 nM.
COc1ccc(CCC(=O)O)cc1-c1cnc(N2CCC2)nc1CN1C(=O)O[C@H](c2cccc(C(F)(F)F)c2)[C@@H]1C [Example 273] gave an IC50 of 2300 nM.
Work on COC(=O)CC(C)(C)c1ccc(OC)c(-c2ccc(N3CCC3)nc2CN2C(=O)O[C@H](c3cc(C(F)(F)F)cc(C(F)(F)F)c3)[C@@H]2C)c1 [Example 7] yielded an IC50 of 12 nM.
With COc1ccc([C@H]2C[C@@H](C(=O)OC)C2)cc1-c1c(C)cc(N2CCC2)nc1CN1C(=O)O[C@H](c2cc(C(F)(F)F)cc(C(F)(F)F)c2)[C@@H]1C (single isomer, unassigned) [Example 41] the IC50 was 4 nM.
Work on COc1ccc(C2CCC(O)C2)cc1-c1ccc(N2CCC2)nc1CN1C(=O)O[C@H](c2cc(C(F)(F)F)cc(C(F)(F)F)c2)[C@@H]1C (mixture of isomers) [Example 262] yielded an IC50 of 3 nM.
Work on COc1ccc(C2C[C@H]2C(=O)O)cc1-c1cnc(N2CC(F)(F)C2)nc1CN1C(=O)O[C@H](c2cc(C(F)(F)F)cc(C(F)(F)F)c2)[C@@H]1C (some centres unmarked) [Example 158] yielded an IC50 of 21 nM.
COC(=O)c1ccc(-c2ccc(OC)c(-c3cnc(N4CC(OC)C4)nc3CN3C(=O)O[C@H](c4cc(C(F)(F)F)cc(C(F)(F)F)c4)[C@@H]3C)c2)c(C)c1 [Example 135] gave an IC50 of 89 nM.
For COC(=O)c1cc(-c2ccc(OC)c(-c3ccc(N4CCC4)nc3CN3C(=O)O[C@H](c4cc(C(F)(F)F)cc(C(F)(F)F)c4)[C@@H]3C)c2)cs1 [Example 49], the IC50 was 98 nM.
With COc1ccc(CCC(=O)N2CCC2)cc1-c1cnc(N2CCC2)nc1CN1C(=O)O[C@H](c2cc(C(F)(F)F)cc(C(F)(F)F)c2)[C@@H]1C [Example 193] the IC50 was 105 nM.
